# Structures can show the parent of a compound that is named as a salt.
# Biological target: T1, PLK1 (Homo sapiens, UniProt P53350)
# T1 construct: PLK kinase domain (amino acids 21-346 preceded by MKKGHHHHHHD); made in house; host or cells: baculovirus infected T. ni cells
# Experiment: Assay for inhibition of PLK1 (SPA kinase assay)
# Type: biochemical
# Settings: 1 μM ATP, 2 nM PLK1 kinase domain, read-out: PLK1 pIC50 (converted)
# Procedure: I. Assay for Inhibition of PLK1
# A. Preparation of 6× N-terminal His-tagged PLK Kinase Domain
# 6× N-terminal His-tagged PLK kinase domain (amino acids 21-346 preceded by MKKGHHHHHHD) SEQ ID: No. 1. was prepared from baculovirus infected T. ni cells under polyhedrin promoter control. All procedures were performed at 4° C. Cells were lysed In 50 mM HEPES, 200 mM NaCl, 50 mM imidazole, 5% glycerol; pH 7.5. The homogenate was centrifuged at 14K rpm in a SLA-1500 rotor for 1 hr and the supernatant filtered through a 1.2 micron filter. The supernatant was loaded onto a Nickel chelating Sepharose (Amersham Pharmacia) column and washed with lysis buffer. Protein was eluted using 20%, 30% and 100% buffer B steps where buffer B was 50 mM HEPES, 200 mM NaCl, 300 mM imidazole, 5% glycerol; pH 7.5. Fractions containing PLK were determined by SDS-PAGE. Fractions containing PLK were diluted five-fold with 50 mM HEPES, 1 mM DTT, 5% glycerol; pH 7.5, then loaded on an SP Sepharose (Amersham Pharmacia) column. After washing the column with 50 mM HEPES, 1 mM DTT, 5% glycerol; pH 7.5, PLK was step eluted with 50 mM HEPES, 1 mM DTT, 500 mM NaCl; 5% glycerol; pH 7.5. PLK was concentrated using a 10 kDa molecular weight cutoff membrane and then loaded onto a Superdex 200 gel filtration (Amersham Pharmacia) column equilibrated in 25 mM HEPES, 1 mM DTT, 500 mM NaCl, 5% glycerol; pH 7.5. Fractions containing PLK were determined by SDS-PAGE. PLK was pooled, aliquoted and stored at −80° C. Samples were quality controlled using mass spectrometry, N-terminal sequencing and amino acid analysis.
# B. Enzyme Activity +/− Inhibitors was Determined as Follows:
# All measurements were obtained under conditions where signal production increased linearly with time and enzyme. Test compounds were added to white 384-well assay plates (0.1 μL for 10 μL and some 20 μL assays, 1 μL for some 20 μL assays) at variable known concentrations in 100% DMSO. DMSO (1-5% final, as appropriate) and EDTA (65 mM in reaction) were used as controls. Reaction Mix was prepared as follows at 22° C.: • 25 mM HEPES, pH 7.2 • 15 mM MgCl2 • 1 μM ATP • 0.05 μCi/well ^33P-γ ATP (10 Ci/mMol) • 1 μM substrate peptide (Biotin-Ahx-SFNDTLDFD) SEQ ID:No. 2. • 0.15 mg/mL BSA • 1 mM DTT • 2 nM PLK1 kinase domain (added last)
# Reaction Mix (10 or 20 μL) was quickly added to each well immediately following addition of enzyme via automated liquid handlers and incubated 1-1.5 h at 22° C. The 20 μL enzymatic reactions were stopped with 50 μL of stop mix (50 mM EDTA, 4.0 mg/mL Streptavidin SPA beads in Standard Dulbecco's PBS (without Mg^2+ and Ca^2+), 50 μM ATP) per well. The 10 μL reactions were stopped with 10 μL of stop mix (50 mM EDTA, 3.0 mg/mL Streptavidin-coupled SPA imaging Beads (“LeadSeeker”) in Standard Dulbecco's PBS (without Mg^2+ and Ca^2+), 50 μM ATP) per well. Plates were sealed with clear plastic seals, spun at 500×g for 1 min or settled overnight, and counted in Packard TopCount for 30 seconds/well (regular SPA) or imaged using a Viewlux imager (LeadSeeker SPA). Signal above background (EDTA controls) was converted to percent Inhibition relative to that obtained in control (DMSO-only) wells.
# T1 sequence (P53350 21-346): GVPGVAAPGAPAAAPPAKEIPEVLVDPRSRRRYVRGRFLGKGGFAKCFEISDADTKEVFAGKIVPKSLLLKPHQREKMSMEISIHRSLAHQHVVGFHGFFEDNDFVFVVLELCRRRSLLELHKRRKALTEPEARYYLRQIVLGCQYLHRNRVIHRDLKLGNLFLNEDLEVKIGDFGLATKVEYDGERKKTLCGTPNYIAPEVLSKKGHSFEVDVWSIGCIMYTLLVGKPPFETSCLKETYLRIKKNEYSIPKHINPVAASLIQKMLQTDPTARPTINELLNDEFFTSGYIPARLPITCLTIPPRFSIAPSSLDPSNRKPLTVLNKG
row,Structure (SMILES),IC50 [nM]
1,"C[C@@H](Oc1cc(-n2cnc3ccc(CS(C)(=O)=O)cc32)sc1C(N)=O)c1cccc(OCC2CCNCC2)c1Cl [Example 56, 3-[((1R)-1-{2-chloro-3-[(4-piperidinylmethyl)oxy]phenyl}ethyl)oxy]-5-{6-[(methylsulfonyl)methyl]-1H-benzimidazol-1-yl}-2-thiophenecarboxamide]",< 100
2,"Cc1ccc(-c2ccc3c(c2)ncn3-c2cc(O[C@H](C)c3cccc(OC4CCNCC4)c3Cl)c(C(N)=O)s2)cn1 [Example 9, 3-({(1R)-1-[2-chloro-3-(4-piperidinyloxy)phenyl]ethyl}oxy)-5-[5-(6-methyl-3-pyridinyl)-1H-benzimidazol-1-yl]-2-thiophenecarboxamide]",< 100
3,"COc1cc2ncn(-c3cc(O[C@H](C)c4cccc(OCCN5CCN(C)CC5)c4Cl)c(C(N)=O)s3)c2cc1OC [Example 42, 5-[5,6-Bis(methyloxy)-1H-benzimidazol-1-yl]-3-{[(1R)-1-(2-chloro-3-{[2-(4-methyl-1-piperazinyl)ethyl]oxy}phenyl)ethyl]oxy}-2-thiophenecarboxamide]",< 100
4,"Cc1nnc(-c2ccc3c(c2)ncn3-c2cc(O[C@H](C)c3cccc(OC4CCNCC4)c3Cl)c(C(N)=O)s2)o1 [Example 87, 3-({(1R)-1-[2-Chloro-3-(4-piperidinyloxy)phenyl]ethyl}oxy)-5-[5-(5-methyl-1,3,4-oxadiazol-2-yl)-1H-benzimidazol-1-yl]-2-thiophenecarboxamide]",< 100
5,"C[C@@H](Oc1cc(-n2cnc3cc(OC(F)(F)F)ccc32)sc1C(N)=O)c1cccc(OC2CCNCC2)c1Cl [Example 61, 3-({(1R)-1-[2-chloro-3-(4-piperidinyloxy)phenyl]ethyl}oxy)-5-{5-[(trifluoromethyl)oxy]-1H-benzimidazol-1-yl}-2-thiophenecarboxamide]",< 100
6,"C[C@@H](Oc1cc(-n2cnc3cc(-c4cnn(C)c4)ccc32)sc1C(N)=O)c1cccc(OCC2CCN(C)CC2)c1Cl [Example 45, 3-{[(1R)-1-(2-Chloro--3-{[(1-methyl-4-piperidinyl)methyl]oxy}phenyl)ethyl]oxy}-5-[5-(1-methyl-1H-pyrazol-4-yl)-1H-benzimidazol-1-yl]-2-thiopnenecarboxamide]",< 100
7,"C[C@@H](Oc1cc(-n2cnc3cc(-c4cnn(C)c4)ccc32)sc1C(N)=O)c1ccc(F)c(OC2CCN(C)CC2)c1Cl [Example 34, 3-[((1R)-1-{2-Chloro-4-fluoro-3-[(1-methyl-4-piperidinyl)oxy]phenyl}ethyl)oxy]-5-[5-(1-methyl-1H-pyrazol-4-yl)-1H-benzimidazol-1-yl]-2-thiophenecarboxamide trifluoroacetate]",< 100
8,"C[C@@H](Oc1cc(-n2cnc3cc(Br)ccc32)sc1C(N)=O)c1cccc(OC2CCN(C)CC2)c1Cl [Example 51, 5-(5-Bromo-1H-benzimidazol-1-yl)-3-[((1R)-1-{2-chloro-3-[(1-methyl-4-piperidinyl)oxy]phenyl}ethyl)oxy]-2-thiophenecarboxamide]",< 100
9,"COc1cc2ncn(-c3cc(O[C@H](C)c4cccc(NCC5CCNCC5)c4Cl)c(C(N)=O)s3)c2cc1OC [Example 1, 5-[5,6-Bis(methyloxy)-1H-benzimidazol-1-yl]-3-[((1R)-1-{2-chloro-3-[(4-piperidinylmethyl)amino]phenyl}ethyl)oxy]-2-thiophenecarboxamide]",< 100
10,"C[C@@H](Oc1cc(-n2cnc3ccccc32)sc1C(N)=O)c1cccc(OCCN2CCOCC2)c1Cl [Example 15, 5-(1H-benzimidazol-1-yl)-3-{[(1R)-1-(2-chloro-3-{[2-(4-morpholinyl)ethyl]oxy}phenyl)ethyl]oxy}-2-thiophenecarboxamide]",< 100
11,"C[C@@H](Oc1cc(-n2cnc3cc(Cl)c(F)cc32)sc1C(N)=O)c1cccc(OC2CCNCC2)c1Cl [Example 67, 5-(5-Chloro-6-fluoro-1H-benzimidazol-1-yl)-3-({(1R)-1-[2-chloro-3-(4-piperidinyloxy)phenyl]ethyl}oxy)-2-thiophenecarboxamide]",< 100
12,"C[C@@H](Oc1cc(-n2cnc3cc(OC(F)(F)F)ccc32)sc1C(N)=O)c1cccc(OC2CCN(C)CC2)c1Cl [Example 62, 3-[((1R)-1-{2-chloro-3-[(1-methyl-4-piperidinyl)oxy]phenyl}ethyl)oxy]-5-{5-[(trifluoromethyl)oxy]-1H-benzimidazol-1-yl}-2-thiophenecarboxamide]",< 100
13,"Cn1cc(-c2ccc3c(c2)ncn3-c2cc(OCc3cccc(OC4CCNCC4)c3)c(C(N)=O)s2)cn1 [Example 83, 5-[5-(1-Methyl-1H-pyrazol-4-yl)-1H-benzimidazol-1-yl]-3-({[3-(4-piperidinyloxy)phenyl]methyl}oxy)-2-thiophenecarboxamide]",< 100
14,"C[C@@H](Oc1cc(-n2cnc3ccc(C#N)cc32)sc1C(N)=O)c1cccc(OC2CCNCC2)c1Cl [Example 5, 3-{(1R)-1-[2-chloro-3(piperidin-4-yloxy)phenyl]ethoxy}-5-(6-cyano-1H-benzimidazol-1-yl)thiophene-2-carboxamide]",< 100
15,"C[C@@H](Oc1cc(-n2cnc3ccccc32)sc1C(N)=O)c1cccc(OCCN2CCNCC2)c1Cl [Example 16, 5-(1H-benzimidazol-1-yl)-3-{[(1R)-1-(2-chloro-3-{[2-(1-piperazinyl)ethyl]oxy}phenyl)ethyl]oxy}-2-thiophenecarboxamide]",< 100
16,"C[C@@H](Oc1cc(-n2cnc3cc(-c4cnn(C)c4)ccc32)sc1C(N)=O)c1cccc(OCCN2CCOCC2)c1Cl [Example 25, 3-{[(1R)-1-(2-chloro-3-{[2-(4-morpholinyl)ethyl]oxy}phenyl)ethyl]oxy}-5-[5-(1-methyl-1H-pyrazol-4-yl)-1H-benzimidazol-1-yl]-2-thiophenecarboxamide]",< 100
17,"C[C@@H](Oc1cc(-n2cnc3cc(-c4cnn(C)c4)ccc32)sc1C(N)=O)c1c(F)ccc(OC2CCN(C)CC2)c1Cl [Example 38, 3-[((1R)-1-{2-Chloro-6-fluoro-3-[(1-methyl-4-piperidinyl)oxy]phenyl}ethyl)oxy]-5-[5-(1-methyl-1H-pyrazol-4-yl)-1H-benzimidazol-1-yl]-2-thiophenecarboxamide]",< 100
18,"C[C@@H](Oc1cc(-n2cnc3ccc(OC(F)(F)F)cc32)sc1C(N)=O)c1cccc(OC2CCN(C)CC2)c1Cl [Example 64, 3-[((1R)-1-{2-chloro-3-[(1-methyl-4-piperidinyl)oxy]phenyl}ethyl)oxy]-5-{6-[(trifluoromethyl)oxy]-1H-benzimidazol-1-yl}-2-thiophenecarboxamide]",< 100
19,"CC(Oc1cc(-n2cnc3cc(-c4cnn(C)c4)ccc32)sc1C(N)=O)c1ccnc(OC2CCN(C)CC2)c1 (stereo not drawn) [Example 80, 3-[(1-{2-[(1-Methyl-4-piperidinyl)oxy]-4-pyridinyl}ethyl)oxy]-5-[5-(1-methyl-1H-pyrazol-4-yl)-1H-benzimidazol-1-yl]-2-thiophenecarboxamide]",< 100
20,"CN1CCC(Oc2cccc(COc3cc(-n4cnc5cc(-c6cnn(C)c6)ccc54)sc3C(N)=O)c2)CC1 [Example 84, 3-[({3-[(1-Methyl-4-piperidinyl)oxy]phenyl}methyl)oxy]-5-[5-(1-methyl-1H-pyrazol-4-yl)-1H-benzimidazol-1-yl]-2-thiophenecarboxamide]",< 100
21,"C[C@@H](Oc1cc(-n2cnc3cc(-c4cnn(C)c4)ccc32)sc1C(N)=O)c1cccc(OCC2CCNCC2)c1Cl [Example 44, 3-[((1R)-1-{2-Chloro-3-[(4-piperidinylmethyl)oxy]phenyl}ethyl)oxy]-5-[5-(1-methyl-1H-pyrazol-4-yl)-1H-benzimidazol-1-yl]-2-thiophenecarboxamide trifluoroacetate]",< 100
